Assays:
[1] = system: HIV-1 NL4-3; experiment: Antiviral assay, HIV-1 NL4-3 in MT-4 cells; format: cell-based; conditions: for antiviral effect when combined with EFdA: HIV-1 NL4-3 in MT-4 cells; for replication of HIV-1 NL4-3 (supernatant p24): MT-4 cells, cultured for 12 days, single drug
Description: Antiviral assays using wild type HIV-1 (HIV-1 NL4-3) cells and MT-4 cells were conducted as previously described ([Maeda et al., 2014]; [Takamatsu et al., 2015]). To determine the cytotoxicity induced by LRAs and its related compounds, cells (5 × 10^5 cells/mL) were cultured in the presence or absence of LRA. After 24 h, cytotoxicity assays were performed using a Cytotoxicity LDH Assay Kit (Dojindo, Kumamoto, Japan) according to the manufacturer’s instructions. The number of living cells with the drug was measured and compared with those without the drug, and data are shown as percentage (%) of control.
Supplementary file Data_Sheet_1.PDF: FIGURE S1 The combined effect of an RT inhibitor (EFdA/MK-8591) ([Nakata et al., 2007]; [Kawamoto et al., 2008]; [Maeda et al., 2014]) and PKC activator (PEP005) on the replication of HIV-1 NL4-3 in MT-4 cells. MT-4 cells were infected with HIV-1 NL4-3 in the presence or absence of drug(s), cultured for 12 days, and the supernatant p24 levels were measured. Click here for additional data file.

[2] = system: J1.1 cells; experiment: Virus production in J1.1 cells (viral RNA copies in supernatant); format: cell-based, HIV-1; conditions: birinapant combined with TNF-α 20 ng/mL, 48 h
Description: Cells were treated with birinapant with ( [drawing 1] ) or without ( [drawing 2] ) TNF-α (20 ng/mL). After 48 h incubation, culture supernatant was harvested, and viral RNA was extracted. Viral copy numbers in culture supernatant were measured by real-time RT-PCR. Click here for additional data file.

[3] = system: latent HIV-1-infected ACH-2 cells; experiment: HIV reactivation from latent cells: intracellular HIV-1 RNA (qRT-PCR); format: cell-based; conditions: 24 h (Figure 1C)
Description: (§1) The reactivation of HIV-1 from latently infected cells was determined by the measurement of supernatant p24 antigen and intracellular HIV-1 RNA levels. ACH-2 cells or U1 cells (5 × 10^5 cells/mL) were placed in 96-well plates, and then the cells were incubated with different concentrations of drugs for 24 h to extract RNA and for 48 h to collect the supernatant. The increase in supernatant p24 antigen levels was measured using […] G1200 (Fujirebio, Tokyo, Japan). The total RNA was extracted using an RNeasy Mini Kit (Qiagen, Hilden, Germany), following the manufacturer’s protocols. The cDNA was synthesized using PrimeScript RT Master Mix (Takara Bio, Shiga, Japan), and quantitative real-time PCR analyses for the intracellular HIV-1 RNA were carried out with PowerUp^TM SYBR Green Master Mix (Applied Biosystems, Foster City, CA, United States). The oligonucleotide primers used were as follows: 5′-[…]-3′ (forward) and 5′-[…]-3′ (reverse) for HIV-RNA detection; 5′-[…]-3′ (forward) and 5′-[…]-3′ (reverse) for β-actin. The HIV-RNA expressions were normalized with that of β-actin, which was indicated as the relative quantity, and the increase in HIV-1 RNA levels in the presence of a drug was compared with that without a drug.
(§2) FIGURE 1 (A,B) The increase in viral production from ACH-2 cells (A) and U1 cells (B) was examined by supernatant p24 antigen levels on day 2. […]

[4] = system: latent HIV-1-infected U1 cells; experiment: as above; format: cell-based; conditions: 24 h (Figure 1D)
Description: as §1, §2

[5] = system: U1 cells; experiment: FACS analysis of active caspase-3 expression; format: cell-based; conditions: 24 h, birinapant 50 nM, PEP005 5 nM, TNF-α 10 ng/ml
Description: Intracellular HIV-1 p24 levels and active form of caspase-3 expression were determined as previously described ([Hattori et al., 2009]; [Duro et al., 2010]; [Matsuda et al., 2015]). In brief, ACH-2 cells or U1 cells (2.5 × 10^5 cells/mL) were fixed with 1% paraformaldehyde/phosphate buffered saline (PBS) for 20 min and were permeabilized with Flow Cytometry Perm Buffer (TONBO biosciences, San Diego, CA, United States). After incubation on ice for 5 min, the cells were stained with anti-HIV-1 p24 (24-4)-FITC mAb (Santa Cruz Biotechnology, Dallas, TX, United States) and/or with Alexa Fluor 647-conjugated anti-active caspase-3 mAb (C92-605) (BD Pharmingen, San Diego, CA, United States) for 30 min on ice. Cells were then analyzed on a BD FACSVerse flow cytometer (BD Biosciences, Franklin Lakes, NJ, United States). The corrected data were analyzed with FlowJo software (Tree Star, San Carlos, CA, United States).
FIGURE 3 (A,B) ACH-2 (A) and U1 cells (B) were treated with birinapant (50 nM), PEP005 (5 nM), birinapant plus PEP005, TNF-α (10 ng/ml), and intracellular expression of caspase-3 was examined after 24 h of incubation. The percentage of active caspase-3 cells was determined by comparison with unstimulated cells. (C) ACH-2 cells after 24 h of PEP005 (0∼50 nM) treatment with or without birinapant (50 nM) were separately analyzed in p24^+ and p24^- populations for caspase-3 expression.

[6] = system: TNF-α; experiment: TNF-α production in culture supernatants (ELISA); format: cell-based; conditions: ACH-2 cells, PEP005 0–50 nM, 24 h
Description: The expression of TNF-α mRNA was measured as previously described ([Zhang et al., 2014]). For the detection of supernatant TNF-α levels, ACH-2 cells (2.5 × 10^5 cells/ml) were incubated with various concentrations of PEP005 (0–50 nM) for 24 h at 37°C. Culture supernatants were harvested and centrifuged to remove cellular debris. The production of TNF-α was measured by using a Human TNF alpha Platinum ELISA Kit (eBioscience, Hatfield, United Kingdom) according to the manufacturer’s instructions. The sensitivity of the assay was 2.3 pg/ml.
Supplementary file Data_Sheet_6.PDF: FIGURE S6 Elevation of supernatant TNF-α protein and mRNA levels in the presence of PEP005. (A) ACH-2 cells were exposed to PEP005, incubated for 24 h, supernatant was harvested, and TNF-α protein levels were measured using ELISA. (B) Changes in mRNA levels of TNF-α in PEP005-treated primary CD4^+ T-cells in eight HIV-1 patients (Supplementary Table S3). Cells were harvested after 24 h incubation. Click here for additional data file.

Structure (SMILES) | antiviral effect when combined with EFdA [1] | replication of HIV-1 NL4-3 (supernatant p24) [1] | virus production (viral copy numbers in culture supernatant) [2] | intracellular HIV-1 mRNA levels [3] | intracellular HIV-1 mRNA levels [4] | percentage of active caspase-3 cells [5] [%] | supernatant TNF-α level [6]
CC[C@H](NC(=O)[C@H](C)NC)C(=O)N1C[C@@H](O)C[C@H]1Cc1c(-c2[nH]c3cc(F)ccc3c2C[C@@H]2C[C@H](O)CN2C(=O)[C@H](CC)NC(=O)[C@H](C)NC)[nH]c2cc(F)ccc12 [Birinapant] | no additive/synergistic antiviral effect | little to no effect on viral replication | suppresses virus production | only had a minor effect on HIV-1 reactivation | only had a minor effect on HIV-1 reactivation |  | 
C/C=C(/C)C(=O)O[C@H]1C(C)=C[C@]23C(=O)[C@@H](C=C(CO)[C@@H](O)[C@]12O)[C@H]1[C@@H](C[C@H]3C)C1(C)C [PEP005, ingenol-3-angelate] | no additive/synergistic antiviral effect | little to no effect on viral replication |  |  |  | 10.8 | elevated

Reference: article PMC6156138, “Combination of a Latency-Reversing Agent With a Smac Mimetic Minimizes Secondary HIV-1 Infection in vitro” (Frontiers in Microbiology, 2018)
